Reference: ChEMBL document CHEMBL1145534 (2007)
Converted amounts (≈) assume the structure as drawn.

Key:
Format in all cases: functional
Enterococcus raffinosus [1] = experiment: Antimicrobial activity against Enterococcus raffinosus at 0.25 ug/ml by broth microdilution method
[2] = system: Enterococcus casseliflavus; experiment: Antimicrobial activity against Enterococcus casseliflavus at 0.12 ug/ml by broth microdilution method
Streptococcus gordonii [3] = experiment: Antimicrobial activity against viridans group Streptococcus gordonii at 1 ug/ml by broth microdilution method
Corynebacterium jeikeium = experiment: Antimicrobial activity against Corynebacterium jeikeium by broth microdilution method
[4] = system: Streptococcus vestibularis; experiment: Antimicrobial activity against viridans group Streptococcus vestibularis at 0.25 ug/ml by broth microdilution method
Corynebacterium striatum [5] = experiment: Antimicrobial activity against Corynebacterium striatum at 0.12 ug/ml by broth microdilution method
Streptococcus oralis [6] = experiment: Antimicrobial activity against viridans group Streptococcus oralis at by broth microdilution method
[7] = system: Enterococcus casseliflavus; experiment: Antimicrobial activity against Enterococcus casseliflavus at 0.5 ug/ml by broth microdilution method
[8] = system: Corynebacterium amycolatum; experiment: Antimicrobial activity against Corynebacterium amycolatum at <= 0.06 ug/ml by broth microdilution method
Aerococcus [9] = experiment: Antimicrobial activity against Aerococcus spp. at <= 0.06 ug/ml by broth microdilution method
Corynebacterium sp. = experiment: Antimicrobial activity against Corynebacterium spp. at 2 ug/ml by broth microdilution method
Aerococcus [10] = experiment: Antimicrobial activity against Aerococcus spp. at 0.12 ug/ml by broth microdilution method
Micrococcus luteus [11] = experiment: Antimicrobial activity against Micrococcus luteus at 0.5 ug/ml by broth microdilution method
Rothia mucilaginosa [12] = experiment: Antimicrobial activity against Rothia mucilaginosa at 0.5 ug/ml by broth microdilution method
Rothia mucilaginosa [13] = experiment: Antimicrobial activity against Rothia mucilaginosa at <= 0.06 ug/ml by broth microdilution method
Streptococcus salivarius [14] = experiment: Antimicrobial activity against viridans group Streptococcus salivarius at 0.12 ug/ml by broth microdilution method
Bacillus cereus [15] = experiment: Antimicrobial activity against Bacillus cereus at 0.25 ug/ml by broth microdilution method
Bacillus cereus [16] = experiment: Antimicrobial activity against Bacillus cereus by broth microdilution method
Streptococcus = experiment: Antimicrobial activity against beta hemolytic Streptococcus group C at 0.12 ug/ml by broth microdilution method
Streptococcus mitis [17] = experiment: Antimicrobial activity against viridans group Streptococcus mitis at <= 0.06 ug/ml by broth microdilution method
Streptococcus gordonii [18] = experiment: Antimicrobial activity against viridans group Streptococcus gordonii at 0.5 ug/ml by broth microdilution method
Micrococcus luteus [19] = experiment: Antimicrobial activity against Micrococcus luteus at 0.12 ug/ml by broth microdilution method
Streptococcus oralis [20] = experiment: Antimicrobial activity against viridans group Streptococcus oralis at 0.12 ug/ml by broth microdilution method
Bacillus cereus [21] = experiment: Antimicrobial activity against Bacillus cereus at 1 ug/ml by broth microdilution method
Streptococcus sanguinis [22] = experiment: Antimicrobial activity against viridans group Streptococcus sanguinis at 0.12 ug/ml by broth microdilution method
Enterococcus raffinosus [23] = experiment: Antimicrobial activity against Enterococcus raffinosus at 0.12 ug/ml by broth microdilution method
Enterococcus durans [24] = experiment: Antimicrobial activity against Enterococcus durans at 0.5 ug/ml by broth microdilution method
Enterococcus durans [25] = experiment: Antimicrobial activity against Enterococcus durans at 0.12 ug/ml by broth microdilution method
Streptococcus equinus [26] = experiment: Antimicrobial activity against viridans group Streptococcus bovis at <= 0.06 ug/ml by broth microdilution method
Bacillus sp. = experiment: Antimicrobial activity against Bacillus spp. at 0.25 ug/ml by broth microdilution method; conditions: Bacillus sp. (in: firmicutes)
Enterococcus gallinarum [27] = experiment: Antimicrobial activity against Enterococcus gallinarum by broth microdilution method
Streptococcus mitis [28] = experiment: Antimicrobial activity against viridans group Streptococcus mitis at 0.25 ug/ml by broth microdilution method
Enterococcus gallinarum [29] = experiment: Antimicrobial activity against Enterococcus gallinarum at 0.12 ug/ml by broth microdilution method
Micrococcus luteus [30] = experiment: Antimicrobial activity against Micrococcus luteus at <= 0.06 ug/ml by broth microdilution method
Streptococcus sanguinis [31] = experiment: Antimicrobial activity against viridans group Streptococcus sanguinis at 0.5 ug/ml by broth microdilution method
Streptococcus oralis [32] = experiment: Antimicrobial activity against viridans group Streptococcus oralis with G2576T rRNA mutation at 4 ug/ml by broth microdilution method
[33] = system: Streptococcus constellatus; experiment: Antimicrobial activity against viridans group Streptococcus constellatus at 0.25 ug/ml by broth microdilution method
Enterococcus avium = experiment: Antimicrobial activity against Enterococcus avium at 0.12 ug/ml by broth microdilution method
[34] = system: Enterococcus casseliflavus; experiment: Antimicrobial activity against Enterococcus casseliflavus at 0.25 ug/ml by broth microdilution method
Streptococcus equinus [35] = experiment: Antimicrobial activity against viridans group Streptococcus bovis at 0.25 ug/ml by broth microdilution method
Enterococcus raffinosus [36] = experiment: Antimicrobial activity against Enterococcus raffinosus at 0.5 ug/ml by broth microdilution method
Streptococcus equinus [37] = experiment: Antimicrobial activity against viridans group Streptococcus bovis at 0.12 ug/ml by broth microdilution method
Streptococcus anginosus = experiment: Antimicrobial activity against viridans group Streptococcus anginosus at 0.5 ug/ml by broth microdilution method
Corynebacterium striatum [38] = experiment: Antimicrobial activity against Corynebacterium striatum at 0.25 ug/ml by broth microdilution method
Streptococcus gordonii [39] = experiment: Antimicrobial activity against viridans group Streptococcus gordonii by broth microdilution method
[40] = system: Streptococcus constellatus; experiment: Antimicrobial activity against viridans group Streptococcus constellatus at <= 0.06 ug/ml by broth microdilution method
Enterococcus hirae = experiment: Antimicrobial activity against Enterococcus hirae by broth microdilution method
[41] = system: Enterococcus casseliflavus; experiment: Antimicrobial activity against Enterococcus casseliflavus at 2 ug/ml by broth microdilution method
Streptococcus equinus [42] = experiment: Antimicrobial activity against viridans group Streptococcus bovis at 1 ug/ml by broth microdilution method
Streptococcus salivarius [43] = experiment: Antimicrobial activity against viridans group Streptococcus salivarius at 0.5 ug/ml by broth microdilution method
Listeria monocytogenes = experiment: Antimicrobial activity against Listeria monocytogenes at 1 ug/ml by broth microdilution method
Streptococcus mitis [44] = experiment: Antimicrobial activity against viridans group Streptococcus mitis at 2 ug/ml by broth microdilution method
[45] = system: Streptococcus vestibularis; experiment: Antimicrobial activity against viridans group Streptococcus vestibularis at <= 0.06 ug/ml by broth microdilution method
Streptococcus mutans = experiment: Antimicrobial activity against viridans group Streptococcus mutans at 2 ug/ml by broth microdilution method
[46] = system: Streptococcus parasanguinis; experiment: Antimicrobial activity against viridans group Streptococcus parasanguis at 1 ug/ml by broth microdilution method
Streptococcus gordonii [47] = experiment: Antimicrobial activity against viridans group Streptococcus gordonii at 0.25 ug/ml by broth microdilution method

Question: For CC(=O)NC[C@H]1CN(c2ccc(N3CCOCC3)c(F)c2)C(=O)O1 [LINEZOLID], which inhibition at 0.25 µg/mL (Enterococcus raffinosus [1]) is on record?
Answer: 0%

Question: And the inhibition at 0.12 µg/mL [2]?
Answer: 0%

Question: What about the inhibition at 1 µg/mL (Streptococcus gordonii [3]) of the same molecule?
Answer: 100%

Question: What about the MIC50 (Corynebacterium jeikeium) of the same molecule?
Answer: 0.25 µg/mL (≈ 0.741 µM)

Question: And the MIC90 (Corynebacterium jeikeium)?
Answer: 0.5 µg/mL (≈ 1.48 µM)

Question: What about the inhibition at 0.25 µg/mL [4] of the same molecule?
Answer: 0%

Question: What about the inhibition at 0.12 µg/mL (Corynebacterium striatum [5]) of the same molecule?
Answer: 12%

Question: And the MIC50 (Streptococcus oralis [6])?
Answer: 1 µg/mL (≈ 2.96 µM)

Question: And the MIC90 (Streptococcus oralis [6])?
Answer: 1 µg/mL (≈ 2.96 µM)

Question: And the inhibition at 0.5 µg/mL [7]?
Answer: 0%

Question: What about the Inhibition [8] of the same molecule?
Answer: 0%

Question: What about the Inhibition (Aerococcus [9]) of the same molecule?
Answer: 0%

Question: What about the inhibition at 2 µg/mL (Corynebacterium sp.) of the same molecule?
Answer: 100%

Question: What about the inhibition at 0.12 µg/mL (Aerococcus [10]) of the same molecule?
Answer: 0%

Question: And the inhibition at 0.5 µg/mL (Micrococcus luteus [11])?
Answer: 75.9%

Question: And the inhibition at 0.5 µg/mL (Rothia mucilaginosa [12])?
Answer: 83.3%

Question: What about the Inhibition (Rothia mucilaginosa [13]) of the same molecule?
Answer: 0%

Question: What about the inhibition at 0.12 µg/mL (Streptococcus salivarius [14]) of the same molecule?
Answer: 1.1%

Question: What about the inhibition at 0.25 µg/mL (Bacillus cereus [15]) of the same molecule?
Answer: 3.3%

Question: And the MIC50 (Bacillus cereus [16])?
Answer: 1 µg/mL (≈ 2.96 µM)

Question: What about the MIC90 (Bacillus cereus [16]) of the same molecule?
Answer: 1 µg/mL (≈ 2.96 µM)

Question: And the inhibition at 0.12 µg/mL (Streptococcus)?
Answer: 3%

Question: And the Inhibition (Streptococcus mitis [17])?
Answer: 0.3%

Question: What about the inhibition at 0.5 µg/mL (Streptococcus gordonii [18]) of the same molecule?
Answer: 33.3%

Question: What about the inhibition at 0.12 µg/mL (Micrococcus luteus [19]) of the same molecule?
Answer: 0%

Question: And the inhibition at 0.12 µg/mL (Streptococcus oralis [20])?
Answer: 0.7%

Question: And the inhibition at 1 µg/mL (Bacillus cereus [21])?
Answer: 98.3%

Question: And the inhibition at 0.12 µg/mL (Streptococcus sanguinis [22])?
Answer: 0.7%

Question: And the inhibition at 0.12 µg/mL (Enterococcus raffinosus [23])?
Answer: 0%

Question: What about the inhibition at 0.5 µg/mL (Enterococcus durans [24]) of the same molecule?
Answer: 8.2%

Question: And the inhibition at 0.12 µg/mL (Enterococcus durans [25])?
Answer: 0%

Question: And the Inhibition (Streptococcus equinus [26])?
Answer: 0%

Question: And the inhibition at 0.25 µg/mL (Bacillus sp.)?
Answer: 4.9%

Question: What about the MIC50 (Enterococcus gallinarum [27]) of the same molecule?
Answer: 2 µg/mL (≈ 5.93 µM)

Question: What about the MIC90 (Enterococcus gallinarum [27]) of the same molecule?
Answer: 2 µg/mL (≈ 5.93 µM)

Question: And the inhibition at 0.25 µg/mL (Streptococcus mitis [28])?
Answer: 4.4%

Question: What about the inhibition at 0.12 µg/mL (Enterococcus gallinarum [29]) of the same molecule?
Answer: 0%

Question: What about the Inhibition (Micrococcus luteus [30]) of the same molecule?
Answer: 0%

Question: What about the inhibition at 0.5 µg/mL (Streptococcus sanguinis [31]) of the same molecule?
Answer: 36.6%

Question: And the inhibition at 4 µg/mL (Streptococcus oralis [32])?
Answer: 99.3%

Question: And the inhibition at 0.25 µg/mL [33]?
Answer: 12.4%

Question: What about the inhibition at 0.12 µg/mL (Enterococcus avium) of the same molecule?
Answer: 0%

Question: And the inhibition at 0.25 µg/mL [34]?
Answer: 0%

Question: What about the inhibition at 0.25 µg/mL (Streptococcus equinus [35]) of the same molecule?
Answer: 2.7%

Question: What about the inhibition at 0.5 µg/mL (Enterococcus raffinosus [36]) of the same molecule?
Answer: 0%

Question: What about the inhibition at 0.12 µg/mL (Streptococcus equinus [37]) of the same molecule?
Answer: 0%

Question: What about the inhibition at 0.5 µg/mL (Streptococcus anginosus) of the same molecule?
Answer: 33.7%

Question: And the inhibition at 0.25 µg/mL (Corynebacterium striatum [38])?
Answer: 88%

Question: And the MIC50 (Streptococcus gordonii [39])?
Answer: 1 µg/mL (≈ 2.96 µM)

Question: What about the MIC90 (Streptococcus gordonii [39]) of the same molecule?
Answer: 1 µg/mL (≈ 2.96 µM)

Question: What about the Inhibition [40] of the same molecule?
Answer: 1.1%

Question: What about the MIC50 (Enterococcus hirae) of the same molecule?
Answer: 2 µg/mL (≈ 5.93 µM)

Question: What about the MIC90 (Enterococcus hirae) of the same molecule?
Answer: 2 µg/mL (≈ 5.93 µM)

Question: And the inhibition at 2 µg/mL [41]?
Answer: 96.9%

Question: What about the inhibition at 1 µg/mL (Streptococcus equinus [42]) of the same molecule?
Answer: 87.2%

Question: What about the inhibition at 0.5 µg/mL (Streptococcus salivarius [43]) of the same molecule?
Answer: 46.2%

Question: What about the inhibition at 1 µg/mL (Listeria monocytogenes) of the same molecule?
Answer: 29.2%

Question: What about the inhibition at 2 µg/mL (Streptococcus mitis [44]) of the same molecule?
Answer: 100%

Question: And the Inhibition [45]?
Answer: 0%

Question: What about the inhibition at 2 µg/mL (Streptococcus mutans) of the same molecule?
Answer: 100%

Question: And the inhibition at 1 µg/mL [46]?
Answer: 100%

Question: What about the inhibition at 0.25 µg/mL (Streptococcus gordonii [47]) of the same molecule?
Answer: 0%
